{"source": "patent US20250090441A1", "about": "“ANTI-CARIES PEPTIDES WITH ANTIMICROBIAL AND REMINERALIZING PROPERTIES AND METHODS THEREOF” (THE UNIVERSITY OF HONG KONG, priority 2023, published 2025)", "assay_type_in_all_cases": "cell-based", "key": {"[1]": {"test_system": "Actinobacillus actinomycetemcomitans ATCC 29523", "method": "(§1) Common oral pathogenic bacterial strains were selected for this study. Streptococcus mutans ATCC 35668, Streptococcus sobrinus ATCC 33478, Lactobacillus acidophilus ATCC 9224, Lactobacillus rhamnosus ATCC10863, Actinomyces naeslundii ATCC 12104, Enterococcus faecalis ATCC 29212, Porphyromonas gingivalis ATCC 33277, and Actinobacillus actinomycetemcomitans ATCC 29523. All the strains were cultured anaerobically.\n(§2) Brain heart infusion (BHI) medium was used for culture of S. mutans, S. sobrinus, L. acidophilus, L. rhamnosus, A. naeslundii, E. faecalis, and A. actinomycetemcomitans, whereas p.g. broth was used for culture of Porphyromonas gingivalis. The standard dilution method in a 96-well microplate was conducted in order to evaluate the antimicrobial efficacy of GAPI. Each well was filled with […] GAPI dilutions. In addition, serial twofold dilutions in concentrations ranging from 1280 μM to 1.25 μM were prepared. A 10 μL bacterial culture (10^6 CFU/mL) was added. Chlorhexidine was used as positive control, and medium was used as negative control. The plates were then anaerobically incubated at 37° C. for 24 h. The absorbance was measured at a wavelength of 660 nm in order to analyze the growth of microorganisms. […] The MBC endpoint was the lowest concentration at which 99.9% of the bacterial population was killed, which thus means the absence of bacteria. The morphology of the bacteria and fungi treated with synthesized peptides was analysed using transmission electron microscopy (TEM) (Philips CM100, Philips/FEI Corporation, Eindhoven, Holland). The sample was prepared following a previous study (Niu et al. 2021d). Copper grids were used to contain the semi-thin sections of bacteria/fungi for examination."}, "[2]": {"test_system": "Lactobacillus rhamnosus ATCC10863", "method": "as §1, §2"}, "[3]": {"test_system": "Lactobacillus acidophilus ATCC 9224", "method": "as §1, §2"}, "[4]": {"test_system": "Streptococcus mutans ATCC 35668", "method": "as §1, §2"}, "[5]": {"test_system": "Porphyromonas gingivalis ATCC 33277", "method": "as §1, §2"}, "[6]": {"test_system": "Enterococcus faecalis ATCC 29212", "method": "as §1, §2"}, "[7]": {"test_system": "Actinomyces naeslundii ATCC 12104", "method": "as §1, §2"}, "[8]": {"test_system": "Streptococcus sobrinus ATCC 33478", "method": "as §1, §2"}, "[9]": {"test_system": "Lacticaseibacillus casei in multiple-species cariogenic biofilm", "experiment": "Multiple-species cariogenic biofilm, PMA-qPCR", "conditions": "three-species biofilm treated with GAPI, n=6 per group", "method": "(§3) A multiple-species cariogenic biofilm consisting of Streptococcus mutans, Lacticaseibacillus casei and Candida albicans was cultured to assess the anti-biofilm properties of GAPI. The culture medium was modified-artificial saliva as described in a previous protocol (Yassin et al. 2016). The biofilm was cultured on glass slides in 24-well plates with 1×10^7 Streptococcus mutans, 1×10^7 Lacticaseibacillus casei and 1×10^5 Candida albicans for 48 h. The biofilm was then treated with GAPI. The biofilm with no treatment was the negative control. After another 48-h incubation, the biofilm was collected for sequent assessments. The architecture of the multiple-species biofilm was assessed using scanning electron microscopy (SEM) and confocal laser scanning microscopy (CLSM). The sample was prepared with our published protocol (Niu et al. 2021d). The growth kinetics of the multiple-species biofilm were analyzed using propidium monoazide-quantitative polymerase chain reaction (PMA-qPCR) (Loozen et al. 2011). Biofilm was suspended in phosphate-buffered solution. The suspension was treated with propidium monoazide (PMA) (Biotium, San Francisco, USA) and exposed to halogen light photoactivation (PMA-Lite™, Biotium, San Francisco, USA). The brightness (luminosity) of the light device is 600-800 millicandela and its wavelength is 465-475 nm. Then deoxyribonucleic acid (DNA) was extracted from PMA-treated biofilm suspension using QIAamp DNA Mini Kit (QIAGEN, Dusseldorf, Germany). The oligonucleotide primers and TaqMan probes were used to quantify multiple-species cariogenic biofilm species: SMUT-forward(F), SMUT-reverse(R) and SMUT-probe(P) for Streptococcus mutans, Lc-F, Lc-R, Lc-P for Lactobacillus casei and Ca—F, Ca—R and Ca-P for Candida albicans […]. […]\n(§4) Biofilm was suspended in phosphate-buffered solution. […] The oligonucleotide primers and TaqMan probes were used to quantify multiple-species cariogenic biofilm species: SMUT-forward(F), SMUT-reverse(R) and SMUT-probe(P) for Streptococcus mutans, Lc-F, Lc-R, Lc-P for Lactobacillus casei and Ca—F, Ca—R and Ca-P for Candida albicans (Table 3). […]"}, "[10]": {"test_system": "Candida albicans in multiple-species cariogenic biofilm", "experiment": "Multiple-species cariogenic biofilm, PMA-qPCR", "conditions": "three-species biofilm treated with GAPI, n=6 per group", "method": "as §3, §4"}, "[11]": {"test_system": "Streptococcus mutans in multiple-species cariogenic biofilm", "experiment": "Multiple-species cariogenic biofilm, PMA-qPCR", "conditions": "three-species biofilm treated with GAPI, n=6 per group", "method": "as §3, §4"}}, "note": "Where a SMILES comes first, the peptide text is derived from it."}
{"smiles": "CC(C)[C@@H]1NC(=O)[C@H](CCCN=C(N)N)NC(=O)[C@H](Cc2ccccc2)NC(=O)[C@@H](NC(=O)[C@H](Cc2c[nH]c3ccccc23)NC(=O)[C@H](CCCN=C(N)N)NC(=O)[C@H](CCCN=C(N)N)NC(=O)c2cc(O)c(O)c(O)c2)CSSC[C@@H](C(=O)N[C@@H](CCCN=C(N)N)C(=O)O)NC(=O)[C@H](CCCCN)NC(=O)[C@H](CCCN=C(N)N)NC(=O)[C@H](Cc2ccc(O)cc2)NC(=O)[C@@H]2CSSC[C@H](NC1=O)C(=O)N[C@@H](Cc1ccc(O)cc1)C(=O)N[C@@H](CCCN=C(N)N)C(=O)NCC(=O)N[C@@H](Cc1ccccc1)C(=O)N2", "note": "[GAPI, Gallic-Acid-Polyphemusin-I] (HELM PEPTIDE1{[O=C(c1cc(O)c(O)c(O)c1)[*:2]].R.R.W.C.F.R.V.C.Y.R.G.F.C.Y.R.K.C.R}$PEPTIDE1,PEPTIDE1,5:R3-18:R3|PEPTIDE1,PEPTIDE1,9:R3-14:R3$$$V2.0)", "values": [{"measurement": "MBC", "setting": "[1]; ATCC 29523", "value": 320, "unit": "µM"}, {"measurement": "MIC", "setting": "[1]; ATCC 29523, anaerobic, 24 h", "value": 160, "unit": "µM"}, {"measurement": "MBC", "setting": "[2]; ATCC 10863", "value": 160, "unit": "µM"}, {"measurement": "MIC", "setting": "[2]; ATCC 10863, anaerobic, 24 h", "value": 20, "unit": "µM"}, {"measurement": "MBC", "setting": "[3]; ATCC 9224", "value": 80, "unit": "µM"}, {"measurement": "MIC", "setting": "[3]; ATCC 9224, anaerobic, 24 h", "value": 40, "unit": "µM"}, {"measurement": "MBC", "setting": "[4]; ATCC 35668", "value": 160, "unit": "µM"}, {"measurement": "MIC", "setting": "[4]; ATCC 35668, anaerobic, 24 h", "value": 80, "unit": "µM"}, {"measurement": "MBC", "setting": "[5]; ATCC 33277", "value": 640, "unit": "µM"}, {"measurement": "MIC", "setting": "[5]; ATCC 33277, anaerobic, 24 h", "value": 320, "unit": "µM"}, {"measurement": "MBC", "setting": "[6]; ATCC 29212", "value": 640, "unit": "µM"}, {"measurement": "MIC", "setting": "[6]; ATCC 29212, anaerobic, 24 h", "value": 160, "unit": "µM"}, {"measurement": "MBC", "setting": "[7]; ATCC 12104", "value": 640, "unit": "µM"}, {"measurement": "MIC", "setting": "[7]; ATCC 12104, anaerobic, 24 h", "value": 160, "unit": "µM"}, {"measurement": "MBC", "setting": "[8]; ATCC 33478", "value": 320, "unit": "µM"}, {"measurement": "MIC", "setting": "[8]; ATCC 33478, anaerobic, 24 h", "value": 80, "unit": "µM"}, {"measurement": "log 10 cell counts of Lacticaseibacillus casei", "setting": "[9]", "value": "7.33±0.38"}, {"measurement": "log 10 cell counts of Candida albicans", "setting": "[10]", "value": "6.63±0.55"}, {"measurement": "log 10 cell counts of Streptococcus mutans", "setting": "[11]", "value": "6.05±0.37"}]}
